Experimental data: patent publication US7771711B2, “Sphingolipids' polyalkylamines conjugates” (Yissum Research Development Company of The Hebrew …, priority 2003, dated 2010)
Structures can show the parent of a compound that is named as a salt. One block for each compound: values may come before it.

What was measured:
[1] = Assembly size by dynamic light scattering (ALV back scattering); assay type: physicochemical
[2] = Electrostatics from dissociation curve of bilayer-incorporated hydroxycoumarin probes (HCPE, C17HC); assay type: physicochemical; details: for pKa C17HC: apparent pKa of hydroxycoumarin probe C17HC incorporated in the assemblies; for Surface potential C17HC / Surface potential HCPE: from shift of pKa of HC, Boltzmann equation; for Surface potential C17HC / Surface pH C17HC: probe C17HC; for pKa HCPE: apparent pKa of hydroxycoumarin probe HCPE incorporated in the assemblies; for Surface potential HCPE / Surface pH HCPE: probe HCPE
Description: The fluorescence excitation of the fluorophore 7-hydroxycoumarin (HC) moieties at 405 nm for HCPE and 380 nm for C17HC reflects the amount of the ionized species, while the excitation at 370 nm for HCPE and 330 nm for C17HC is the pH-independent isosbestic point, reflects the total amount of probe in the liposomes and micelles. Fluorescence emission was determined at 450 nm for all the above excitations. These two ratios (405/370 for HCPE, and 380/330 for C17HC) give the degree of ionization of HC fluoropore. The titration curve of HC, which is generated by plotting fluorescence excitation intensity ratio I405/I370 for HCPE and I380/I330 for C17HC at broad range of bulk pH, enables to calculate the apparent pKa of HC in HCPE and C17HC, respectively. The pKa of HC in the liposomal bilayer and/or in the micelles is calculated by fitting the above titration curve to the modified Henderson -Hasselbach equation, as described before [Zuidam & Barenholz (1997) ibid.]. The surface potential is then determined from the shift of pKa of HC that dramatically occurs in the strongly basic environment of cationic bilayer, according to the Boltzmann equation [Zuidam & Barenholz (1997) ibid.]

[3] = ζ-potential by Zetasizer in 10 mM NaCl; assay type: physicochemical; details: 25° C., 10 mM NaCl (pH 6.7)
Description: Liposomes' and micelles' ζ-potential was measured at 25° C. by the mobility of the particles in the applied electrical field using a Zetasizer 3000 HAS, Malvern Instruments, Malvern, UK, by diluting an aliquot of 40 μL in 20 mL of 10 mM NaCl (pH 6.7) and passing the solutions before measurement through a 0.2-μm syringe filter (Minisart, Sartorius, Germany). ζ-potential reflects the electrical potential at the plane of sheer (further away from the actual surface), which is sensed by the HCPE and C17HC.

[4] = DPH fluorescence increase upon aggregation
[5] = Follow up (storage) assays of CCS lipid assemblies in HEPES pH 7.4 at 4° C.; assay type: physicochemical
Description: FIGS. 3A-3D show the results of the different follow up assays (follow up for 23 days). The follow up assay were based on TNBS test, which is a quantitative assay based on color reaction of TNBS reagent with primary amines.
The level of primary amines was determined with storage time in TNBS binding and described as % of freshly hydrated preparation. The change in Zeta potential, the change in the HCPE fluorescence 450 nm/370 mnm excitation ratio, and the change in size of the lipid assemblies (liposomes or micelles) formed was determined.
At 21 day, there were 6 time points of storage, which were assayed simultaneously for the following parameters: […]

[6] = Level of hydration by Laurdan excitation general polarization; assay type: physicochemical; details: 20 mM HEPES pH 7.4, 25° C.
Description: Hydration level of the different CCS-based lipid assemblies before and after the addition of plasmid DNA was determined by monitoring changes of “Laurdan excitation general polarization” according to which the higher the value obtained, the lower is the level of hydration.
6-Dodecanoyl-2-dimethylaminonaphthalene (Laurdan), purchased from Lambda (Graz, Austria), was used to follow changes in hydration level of the liposome bilayer. The naphthalene fluorophore of this probe is located at the hydrophilichydrophobic interface of the bilayer, and its 12-carbon chain is aligned parallel to the bilayer lipid acyl chains. When associated with lipids, Laurdan excitation and emission spectra depend strongly on the phase of the lipid. […] The lipid phases and level of hydration can be described by a Laurdan steady-state fluorescence parameter referred to as generalized polarization (GP) [Hirsch-Lerner D, Barenholz Y. Biochim Biophys Acta. […] Laurdan GP fluorescence spectra in lipid vesicles are dependent on the number of water molecules around the fluorescent moiety of Laurdan. Excitation GP was calculated according to the expression: GP340=(I440−I490)/(I440+I490) (1) where I440 and I490 are the intensities of fluorescence emission at wavelengths 440 and 490 nm and the excitation wavelength 340 nm. […]

[7] = base
[8] = listed as CCS Acetate (micelles)
[9] = listed as CCS Chloride (micelles)

Assembly size, diameter (mass-weight) [1]: micelles 6 nm; | pKa C17HC [2, 8]: 4.75 | Surface potential C17HC [2, 8]: 245.8 mV | Surface pH C17HC [2, 8]: 11.5 | ζ-potential [3, 8]: 40 | Critical Micelle Concentration (CMC) [4]: 5 µM
SMILES: CCCCCCCCCCCCC/C=C/[C@@H](O)[C@H](COC(=O)NCCCNCCCCNCCCN)NC(=O)CCCCCCCCCCCCCCC [CCS Acetate salt, N-palmitoyl D-erythro sphingosyl-1-carbamoyl spermine]

Assembly size, diameter (mass-weight) [1]: micelles 25 nm; | pKa C17HC [2, 9]: 5.61 | pKa HCPE [2, 9]: 6.56 | Surface potential C17HC [2, 9]: 195.4 mV | Surface potential HCPE [2, 9]: 242.3 mV | Surface pH C17HC [2, 9]: 10.64 | Surface pH HCPE [2, 9]: 11.54 | ζ-potential [3, 9]: 46.5 | Critical Micelle Concentration (CMC) [4]: 5 µM
SMILES: CCCCCCCCCCCCC/C=C/[C@@H](O)[C@H](COC(=O)NCCCNCCCCNCCCN)NC(=O)CCCCCCCCCCCCCCC [CCS Chloride salt, N-palmitoyl D-erythro sphingosyl-1-carbamoyl spermine]

pKa HCPE [2]: 7.23 | Surface potential HCPE [2]: 203.06 mV | Surface pH HCPE [2]: 10.87 | ζ-potential [3]: 34
SMILES: CCCCCCCCCCCCC/C=C/[C@@H](O)[C@H](COC(=O)NCCCNCCCCNCCCN)NC(=O)CCCCCCCCCCCCCCC [CCS non-protonated, N-palmitoyl D-erythro sphingosyl-1-carbamoyl spermine]

Zeta potential during storage ([5]; HEPES buffer pH 7.4, 4° C., 23 days): no substantial change | Change in time in diameter of lipid assemblies during storage ([5]; HEPES pH 7.4, 4° C.): remained relatively small | Period of chemical stability of dispersions in aqueous phase ([5]; HEPES pH 7.4, 4° C.): at least 23 days | Surface pH and electrical surface potential over storage (HCPE 405/370 excitation ratio) ([5]; HEPES pH 7.4, 4° C., entire period of storage): unchanged | Level of primary amines upon storage (TNBS binding) ([5]; HEPES pH 7.4, 4° C., follow up for 23 days): no substantial change | Hydration state before addition of DNA (Laurdan GP) [6]: high hydration state | Hydration state upon addition of DNA (Laurdan GP) ([6]; formation of lipoplexes): become dehydrated | Solubility in ethanol [7]: exhibited
SMILES: CCCCCCCCCCCCC/C=C/[C@@H](O)[C@H](COC(=O)NCCCNCCCCNCCCN)NC(=O)CCCCCCCCCCCCCCC [CCS, N-palmitoyl D-erythro sphingosyl-1-carbamoyl spermine]
